Ends that are not written are not given here.
Assays:
MPO = biological target: T1, MPO (Homo sapiens, UniProt P05164); assay: MPO-mediated oxidation of TMB (FIG. 16); type: biochemical; details: FIG. 16, dose-response, increasing MPO concentrations
T1 sequence (P05164 49-745): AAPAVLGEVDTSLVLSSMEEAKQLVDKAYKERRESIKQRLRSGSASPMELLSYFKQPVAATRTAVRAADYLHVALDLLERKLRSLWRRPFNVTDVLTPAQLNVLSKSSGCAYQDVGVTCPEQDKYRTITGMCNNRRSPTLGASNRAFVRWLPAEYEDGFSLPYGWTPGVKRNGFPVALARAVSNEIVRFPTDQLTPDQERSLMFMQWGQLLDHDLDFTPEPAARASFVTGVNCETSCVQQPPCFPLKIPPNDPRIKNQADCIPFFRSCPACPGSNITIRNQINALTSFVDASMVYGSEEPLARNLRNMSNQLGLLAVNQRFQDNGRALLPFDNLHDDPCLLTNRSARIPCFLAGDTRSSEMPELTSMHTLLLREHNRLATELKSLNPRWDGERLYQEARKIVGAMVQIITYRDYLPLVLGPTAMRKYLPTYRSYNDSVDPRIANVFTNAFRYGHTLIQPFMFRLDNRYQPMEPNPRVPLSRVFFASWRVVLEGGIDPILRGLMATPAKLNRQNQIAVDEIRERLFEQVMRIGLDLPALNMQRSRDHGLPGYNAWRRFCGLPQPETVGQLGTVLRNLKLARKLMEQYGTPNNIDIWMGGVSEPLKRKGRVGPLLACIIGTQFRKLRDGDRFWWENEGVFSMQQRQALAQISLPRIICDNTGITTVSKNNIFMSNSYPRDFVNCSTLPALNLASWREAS
Source text: FIG. 16 is a graph showing PIC1 dose-response inhibition of MPO-mediated oxidation of TMB for increasing concentrations of MPO.
PA-dPEG24 can inhibit the peroxidase effect of MPO in clinical CF sputum samples ex vivo as well as for purified MPO in vitro. […] PA-dPEG24 can inhibit NET formation in vitro, such as NET formation stimulated by any of phorbol 12-myristate 13-acetate (PMA), purified MPO, and immune complex-activated human sera.

human neutrophils = assay: PMA-initiated NET formation by human neutrophils (fluorescence microscopy, PicoGreen free DNA); type: cell-based; details: 5 mM PA-dPEG24, PMA + hydrogen peroxide
Experimental: Neutrophils from the blood of healthy volunteers were purified from heparinized blood by Hypaque-Ficoll step gradient centrifugation, dextran sedimentation, and hypotonic lysis, as previously described.
A Neutrophil Extracellular Trap assay was performed in a microtiter plate as follows. The formation of NETs was induced by incubating 2.0×10^5 neutrophils in a 96 well tissue culture plates with RPMI media alone, or adding 0.05% of H2O2, or 12 nM PMA, or 8 μg/ml MPO, or PA-dPEG24 at various concentrations. For immune complex sera induced NET formation, activated sera was made by adding 5 μl of ovalbumin-anti-ovalbumin immune complex to 5% NHS in 0.3 ml of GVBS^++. This combination was allowed to incubate for 30 minutes at 37° C., and then 0.05 ml was added to the neutrophils in RPMI. Cells were then incubated for 1.5 hours at 37° C. in 5% CO2 incubator.
NET formation was quantitatively assayed as follows. Free DNA was measured by PicoGreen in the supernatant recovered from the NET microtiter plate well assay. Five hundred units of […] (Fisher) were added to each well to allow for digestion of released extracellular DNA for 10 minutes in 37° C. incubator. […] The fluorescence was then quantified on a BioTek microplate reader at Excitation 485 nm/Emission 528 nm.
NET formation was assayed by fluorescence microscopy. […]

Substance: IALILEPICCQERAA-dPEG24 (cysteine pairing not given here) [PA-dPEG24, 15-amino acid PEGylated peptide, 24 PEG moieties at the C-terminus]
- MPO-mediated oxidation of TMB (MPO): inhibits MPO-mediated oxidation
- NETs identified by fluorescence microscopy (human neutrophils): did not generate NETs
- inhibition of free DNA elaboration (PicoGreen) (human neutrophils; vs no inhibitor, P=0.01): 2.6 fold
